Reference: publication PMC7700809 (Molecular Biomedicine, 2020)

Tests used:
[1] = tested on: SARS-CoV-2; experiment: microbe, parasite or virus in culture; format: cell-based; details: Severe acute respiratory syndrome coronavirus 2, Vero; read-out: EC50 virus entry blocking
[2] = In vivo plasma pharmacokinetics in mice; details: for MRT last: read-out: MRT0-t; for MRT inf: read-out: MRT0-∞
Experimental: (§1) After dosage, blood samples were collected into heparinized tubes at 2, 5, 15, 30, 60, 120, 240, 360, 540, and 720 min for the i.v. group, and at 5, 15, 30, 60, 90, 120, 240, 360, 540, 720 and 1440 min for the i.g. group. Plasma (100 μL) was isolated from the blood sample by centrifuging at 4 °C and 6000 rpm for 3 min and then stored at − 80 °C until analysis. An aliquot of 100 μL of each plasma sample was mixed with 20 μL of internal standard working solution (200 ng/mL of caffeine). Methanol (400 μL) was then added for precipitation. After vortexing for 5 min and centrifuging at 14000 rpm for 10 min, 5 μL of the supernatant was injected for LC-MS/MS analysis.
(§2) The PK parameters were analyzed through the noncompartment model using WinNonlin 6.1 software (Pharsight Corporation, Mountain View, USA), including half-life (T1/2), the peak of the plasma concentration (Cmax), the time to peak of the plasma concentration (Tmax), the area under the plasma concentration-time curve during the period of observation (AUC0-t), the area under the plasma concentration-time curve from zero to infinity (AUC0-∞), clearance (CL), apparent volume of distribution (Vd), and the mean residence time.

[3] = In vivo plasma pharmacokinetics in rats; parameters: species or system Sprague-Dawley rats; details: Rat; for MRT last: read-out: MRT0-t; for MRT inf: read-out: MRT0-∞
Experimental: as §1, §2

[4] = in vivo; details: mouse, iv, 1 mg/kg, I.V. 1 mg/kg; for AUC(0-inf): AUC0-∞; for AUC(0-inf) / AUC(0-t) / Cmax / MRT last / MRT inf / Tmax: mice; for AUC(0-t): AUC0-t; for MRT last: MRT0-t; for MRT inf: MRT0-∞; for half-life: T1/2, mice
[5] = Lung distribution in rats after oral administration
[6] = Lung distribution in mice after oral administration
[7] = Sprague-Dawley, iv, I.V. 1 mg/kg
[8] = Sprague-Dawley, po, P.O. 10 mg/kg
[9] = 1 mg/kg (P.O.) single dose, 1 h
[10] = 1 mg/kg (P.O.) single dose, 2 h
[11] = 1 mg/kg (P.O.) single dose, 4 h
[12] = 1 mg/kg (P.O.) single dose, 6 h
[13] = 1 mg/kg (P.O.) single dose, 9 h
[14] = 1 mg/kg (P.O.) single dose, 24 h
[15] = 1 mg/kg (P.O.) single dose, 48 h
[16] = 1 mg/kg (P.O.) single dose, 72 h
[17] = 1 mg/kg (Q.D.× 3 days, P.O.), 1 h
[18] = 1 mg/kg (Q.D.× 3 days, P.O.), 2 h
[19] = 1 mg/kg (Q.D.× 3 days, P.O.), 4 h
[20] = 1 mg/kg (Q.D.× 3 days, P.O.), 6 h
[21] = 1 mg/kg (Q.D.× 3 days, P.O.), 9 h
[22] = 1 mg/kg (Q.D.× 3 days, P.O.), 12 h
[23] = 1 mg/kg (Q.D.× 3 days, P.O.), 24 h
[24] = 1 mg/kg (Q.D.× 3 days, P.O.), 72 h

## CC[C@H]1CN2CCc3cc(OC)c(OC)cc3[C@@H]2C[C@@H]1C[C@H]1NCCc2cc(OC)c(OC)cc21 [Emetine]
[1]
  EC50: 0.019 µM
[2]; I.V. 1 mg/kg
  AUMC0-t: 616 ± 181 hr*hr.*ng/mL
  AUMC0-∞: 3472 ± 1149 hr*hr.*ng/mL
[2]; P.O. 10 mg/kg
  AUMC0-t: 8355 ± 2710 hr*hr.*ng/mL
  AUMC0-∞: 36,666 ± 31,176 hr*hr.*ng/mL
  Cl: 8.611 ± 3.893 L/h/kg
  Vz: 174,470 ± 45,790 mL/kg
[2]; male, mouse, iv, I.V. 1 mg/kg
  AUC(0-inf): 0.258 ± 0.071 µg·h/mL
  AUC(0-t): 0.12 ± 0.026 µg·h/mL
  C0: 0.172 ± 0.086 µg/mL
  Cmax: 0.111 ± 0.0135 µg/mL
  Tmax: 0.03 h
  clearance: 4.12 L/h/kg
  half-life: 6.24 ± 1.17 h
  MRT last: 5.06 ± 0.57 h
  MRT inf: 13.4 ± 1.37 h
[2]; male, mouse, iv, I.V. 1 mg/kg, read-out: Vz
  Vd: 38.4 L/kg
[2]; male, mouse, po, P.O. 10 mg/kg
  AUC(0-inf): 1.34 ± 0.625 µg·h/mL
  AUC(0-t): 0.811 ± 0.208 µg·h/mL
  Cmax: 0.0616 ± 0.0151 µg/mL
  Tmax: 1.67 ± 0.58 h
  half-life: 15.9 ± 8.22 h
  MRT last: 10.2 ± 1.31 h
  MRT inf: 24.3 ± 10 h
[2]; male, mouse, po, P.O. 10 mg/kg vs I.V. 1 mg/kg, read-out: F (oral bioavailability)
  bioavailability: 52.1 ± 24.2%
[3]; I.V. 1 mg/kg
  AUMC0-t: 131 ± 18 hr*hr.*ng/mL
  AUMC0-∞: 320 ± 141 hr*hr.*ng/mL
[3]; P.O. 10 mg/kg
  AUMC0-t: 1989 ± 15 hr*hr.*ng/mL
  AUMC0-∞: 3676 ± 1871 hr*hr.*ng/mL
  Cl: 45,918 ± 5515 mL/hr./kg
[3]; [7]
  AUC(0-inf): 0.0398 ± 0.0113 µg·h/mL
  AUC(0-t): 0.0298 ± 0.0061 µg·h/mL
  C0: 0.0335 ± 0.0024 µg/mL
  Cmax: 0.0269 ± 0.0048 µg/mL
  Tmax: 0.03 h
  clearance: 26.7 L/h/kg
  half-life: 4.46 ± 1.18 h
  MRT last: 4.41 ± 0.31 h
  MRT inf: 7.76 ± 1.81 h
[3]; Sprague-Dawley, iv, I.V. 1 mg/kg, read-out: Vz
  Vd: 163 L/kg
[3]; [8]
  AUC(0-inf): 0.22 ± 0.028 µg·h/mL
  AUC(0-t): 0.172 ± 0.018 µg·h/mL
  Cmax: 0.0122 ± 0.0033 µg/mL
  Tmax: 9 h
  half-life: 5.16 ± 4.16 h
  MRT last: 11.6 ± 1.33 h
  MRT inf: 16.2 ± 6 h
[3]; Sprague-Dawley, po, P.O. 10 mg/kg vs I.V. 1 mg/kg, read-out: F (oral bioavailability)
  bioavailability: 55.3 ± 7.1%
[4]; male, Kidney
  AUC(0-inf): 99.1 µg·h/mL
[4]; male, Lung
  AUC(0-inf): 65.4 µg·h/mL
[4]; Kidney
  AUC(0-t): 37 µg·h/mL
  Cmax: 4.55 µg/mL
  MRT last: 5.23 h
  MRT inf: 28.4 h
  half-life: 20.9 h
  Tmax: 0.5 h
[4]; Liver
  AUC(0-t): 41.3 µg·h/mL
  AUC(0-inf): 139 µg·h/mL
  Cmax: 4.42 µg/mL
  MRT last: 6.67 h
  MRT inf: 28 h
  half-life: 17.3 h
  Tmax: 9 h
[4]; Lung
  AUC(0-t): 35.4 µg·h/mL
  Cmax: 8.58 µg/mL
  MRT last: 5.13 h
  MRT inf: 15.9 h
  half-life: 11.5 h
  Tmax: 0.03 h
[5]; [9]
  Rat lung con.: 0.15 ± 0.03 ng/mL
[5]; [10]
  Rat lung con.: 0.26 ± 0.06 ng/mL
[5]; [11]
  Rat lung con.: 0.93 ± 0.32 ng/mL
[5]; [12]
  Rat lung con.: 1.01 ± 0.10 ng/mL
[5]; [13]
  Rat lung con.: 1.47 ± 0.09 ng/mL
[5]; 1 mg/kg (P.O.) single dose, 12 h
  Rat lung con.: 1.61 ± 0.48 ng/mL
[5]; [14]
  Rat lung con.: 1.32 ± 0.63 ng/mL
[5]; [15]
  Rat lung con.: 0.76 ± 0.11 ng/mL
[5]; [16]
  Rat lung con.: 0.36 ± 0.08 ng/mL
[5]; [17]
  Rat lung con.: 5.78 ± 0.61 ng/mL
[5]; [18]
  Rat lung con.: 6.51 ± 0.67 ng/mL
[5]; [19]
  Rat lung con.: 6.65 ± 1.21 ng/mL
[5]; [20]
  Rat lung con.: 6.96 ± 0.87 ng/mL
[5]; [21]
  Rat lung con.: 8.34 ± 1.09 ng/mL
[5]; [22]
  Rat lung con.: 8.16 ± 1.58 ng/mL
[5]; [23]
  Rat lung con.: 7.25 ± 0.79 ng/mL
[5]; 1 mg/kg (Q.D.× 3 days, P.O.), 48 h
  Rat lung con.: 5.97 ± 0.81 ng/mL
[5]; [24]
  Rat lung con.: 4.89 ± 1.35 ng/mL
[5]; rats, 1 mg/kg single oral dose, 12 h, 1 mg/kg
  Lung concentration: 1.6 µM
[5]; rats, 1 mg/kg/day oral 3 days
  time of maximum lung concentration (Cmax): 9 h
[6]; [9]
  Mice lung con.: 0.23 ± 0.04 ng/mL
[6]; [10]
  Mice lung con.: 0.50 ± 0.35 ng/mL
[6]; [11]
  Mice lung con.: 0.81 ± 0.16 ng/mL
[6]; [12]
  Mice lung con.: 1.06 ± 0.09 ng/mL
[6]; [13]
  Mice lung con.: 1.75 ± 0.28 ng/mL
[6]; [14]
  Mice lung con.: 1.13 ± 0.18 ng/mL
[6]; [15]
  Mice lung con.: 0.61 ± 0.09 ng/mL
[6]; [16]
  Mice lung con.: 0.23 ± 0.06 ng/mL
[6]; [17]
  Mice lung con.: 6.17 ± 1.54 ng/mL
[6]; [18]
  Mice lung con.: 6.44 ± 0.96 ng/mL
[6]; [19]
  Mice lung con.: 6.73 ± 0.40 ng/mL
[6]; [20]
  Mice lung con.: 7.14 ± 2.10 ng/mL
[6]; [21]
  Mice lung con.: 7.46 ± 0.89 ng/mL
[6]; [22]
  Mice lung con.: 7.26 ± 0.93 ng/mL
[6]; [23]
  Mice lung con.: 4.61 ± 0.84 ng/mL
[6]; [24]
  Mice lung con.: 2.17 ± 0.42 ng/mL
[6]; in vivo animal PK study, species not named at the place
  retention time in lung tissue: over 12 h
[6]; mice, 1 mg/kg single oral dose
  time of maximum lung concentration: 12 h
[6]; mice, 1 mg/kg/day oral 3 days
  time of maximum lung concentration (Cmax): 9 h
